Data: patent US4659717A, “Dihydropyridines useful in the treatment of angina and stroke” (Eli Lilly and Company, priority 1985, dated 1987)

Each compound was assayed on Dog Coronary Artery (assay: Dog coronary artery test: relaxation of KCl-contracted coronary artery rings). Conditions: Canis lupus familiaris, coronary artery rings contracted with 50 mM KCl, 37° C.; IC50 = 50% relaxation; mean values, probit analysis.
Type: cell-based
Procedure: Mongrel dogs of either sex and weighing 15 to 30 kg were anesthetized with pentobarbital (35 mg/kg). Each heart was quickly removed through a right thoracotomy and placed in Kreb's bicarbonate solution of the following composition (mM/L): NaCl, 118.2; KCl, 4.6; CaCl2.2H2 O, 1.6; KH2 PO4, 1.2; MgSO4.7H2 O, 1.2; NaHCO3, 24.8; and dextrose, 10.0. The medium was kept at room temperature and saturated with 95% O2 /5% CO2. The left anterior descending and circumflex coronary arteries were isolated and used either immediately or stored overnight at 5° C. Arteries were cut into rings approximately 2 to 3 mm wide, placed on 2 L-shaped hooks and mounted in a 10 ml organ bath by attaching one hook to a stationary glass rod and the other hook to a force-displacement transducer. Tissue medium consisted of Kreb's bicarbonate solution maintained at 37° C. and bubbled with 95 % O2 /5% CO2. Artery rings were equilibrated for 1-2 hours under a resting tension of 3 g. Tissue medium was then changed to one containing 50 mM KCl and 72.8 mM NaCl but otherwise identical to Kreb's bicarbonate solution. After tissues achieved a steady state contractile tension (1-2 hours) a given test agent was added to each bath and concentration-response curves determined. […] At the end of the concentration-response curve, tissue medium was changed to one identical to the 50 mM KCl buffer but containing 2.5 mM EGTA and no CaCl2.2H2 O to obtain complete relaxation of the tissue. Percent relaxation was then determined for each concentration and values producing 50% relaxation (IC50) were estimated using a probit analysis.

SMILES | IC50 [µM]
COC(=O)C1=C(C)NC(C)=C(C(=O)OC)C1c1csc2ccncc12 [Example 9, 1,4-Dihydro-2,6-dimethyl-4-thieno[3,2-c]pyridin-3-yl-3,5-pyridinedicarboxylic acid, dimethyl ester] | 0.1
CCOC(=O)C1=C(C)NC(C)=C(C(=O)OC(C)C)C1c1csc2ccncc12 (centres unmarked) [Example 17, 1,4-Dihydro-2,6-dimethyl-4-thieno[3,2-c]pyridin-3-yl-3,5-pyridinedicarboxylic acid, 3-ethyl 5-isopropyl ester] | 0.0832
CCOC(=O)C1=C(C)NC(C)=C(C(=O)OCC)C1c1csc2cccc([N+](=O)[O-])c12 [Example 28, 1,4-Dihydro-2,6-dimethyl-4-(4-nitrobenzo[b]thien-3-yl)-3,5-pyridinecarboxylic acid, diethyl ester] | 0.155
CC1=C(C(=O)OC(C)C)C(c2csc3ccncc23)C(C(=O)OC(C)C)=C(C)N1 [Example 7, 1,4-Dihydro-2,6-dimethyl-4-thieno[3,2-c]pyridin-3-yl-3,5-pyridinedicarboxylic acid, diisopropyl ester] | 0.398
COC(=O)C1=C(C)NC(C)=C(C(=O)OC(C)c2ccccc2)[C@@H]1c1csc2ccncc12 (stereo partly drawn) [Example 47, (R)-1,4-Dihydro-2,6-dimethyl-4-thieno[3,2-c]pyridin-3-yl-3,5-pyridinedicarboxylic acid, methyl 1-phenylethyl ester] | 0.049
COC(=O)C1=C(C)NC(C)=C(C(=O)OCC(C)C)C1c1csc2ccncc12 (centres unmarked) [Example 43, 1,4-Dihydro-2,6-dimethyl-4-thieno[3,2-c]pyridin-3-yl-3,5-pyridinedicarboxylic acid, methyl 2-methylpropyl ester] | 0.1
COCCOC(=O)C1=C(C)NC(C)=C(C(=O)OC)C1c1csc2ccncc12 (centres unmarked) [Example 21, 1,4-Dihydro-2,6-dimethyl-4-thieno[3,2-c]pyridine-3-yl-3,5-pyridinedicarboxylic acid, 3-methyl 5-(2-methoxyethyl)ester] | 0.0617
COC(=O)C1=C(C)NC(C)=C(C(=O)OC(C)C)C1c1csc2cnccc12 (centres unmarked) [Example 41, 1,4-Dihydro-2,6-dimethyl-4-thieno[2,3-c]pyridin-3-yl-3,5-pyridinedicarboxylic acid, monomethyl mono(1-methylethyl)ester] | 0.0324
CCOC(=O)C1=C(C)NC(C)=C(C(=O)OCC)C1c1csc2ccc(Br)cc12 [Example 22, 4-(5-Bromobenzo[b]thien-3-yl)-1,4-dihydro-2,6-dimethyl-3,5-pyridinedicarboxlic acid, diethyl ester] | 39.8
CCOC(=O)C1=C(C)NC(C)=C(C(=O)OC)C1c1csc2ccncc12 (centres unmarked) [Example 33, 1,4-Dihydro-2,6-dimethyl-4-thieno[3,2-c]pyridin-3-yl-3,5-pyridinedicarboxylic acid, ethyl methyl ester] | 0.0302
CCOC(=O)C1=C(C)NC(C)=C(C(=O)OCC)C1c1csc2ccccc12 [Example 3, 4-Benzo[b]thien-3-yl-1,4-dihydro-2,6-dimethyl-3,5-pyridinedicarboxylic acid, diethyl ester] | 0.0794
CCOC(=O)C1=C(C)NC(C)=C(C(=O)OCC)C1c1c(C)sc2ccncc12 [Example 6, 1,4-Dihydro-2,6-dimethyl-4-(2-methylthieno[3,2-c]pyridin-3-yl)-3,5-pyridinedicarboxylic acid, diethyl ester] | 0.398
CCOC(=O)C1=C(C)NC(C)=C(C(=O)OCC)C1c1c(Br)sc2ccccc12 [Example 23, 4-(2-Bromobenzo[b]thien-3-yl)-1,4-dihydro-2,6-dimethyl-3,5-pyridinedicarboxylic acid, diethyl ester] | 7.08

Same assay, conditions: coronary artery rings contracted with 50 mM KCl, 37° C.; IC50 = 50% relaxation; mean values, probit analysis

SMILES | -log IC50
CCOC(=O)C1=C(C)NC(C)=C(C(=O)OCCOC)C1c1csc2cccnc12 (centres unmarked) [Example 19, 1,4-Dihydro-2,6-dimethyl-4-thieno[3,2-]pyridin-3-yl-3,5-pyridinedicarboxylic acid, 3-ethyl 5-(2-methoxyethyl)ester] | 7.0
